Data taken from ChEMBL document CHEMBL4002566, “S-substituted 3,5-dinitrophenyl 1,3,4-oxadiazole-2-thiols and tetrazole-5-thiols as highly efficient antitubercular agents” (Eur J Med Chem, 2017).
Converted amounts (≈) assume the structure as drawn.

How the values were obtained:
Lichtheimia corymbifera [1] = assay: Antifungal activity against Absidia corymbifera 272 after 48 hrs by broth microdilution method; assay type: functional; details: Lichtheimia corymbifera, 272, 48 h
[2] = system: Staphylococcus epidermidis; assay: Antibacterial activity against Staphylococcus epidermidis HK6996/08 after 24 hrs by broth microdilution method; assay type: functional; details: HK6996/08, 24 h
Klebsiella pneumoniae [3] = assay: Antibacterial activity against extended spectrum beta-lactamase producing Klebsiella pneumoniae HK14368/08 after 24 hrs by broth microdilution method; assay type: functional; details: HK14368/08, 24 h
Staphylococcus aureus [4] = assay: Antibacterial activity against Staphylococcus aureus ATCC 6538 after 24 hrs by broth microdilution method; assay type: functional; details: ATCC 6538, 24 h
A-431 = assay: Cytotoxicity against human A431 cells assessed as cell viability after 48 hrs by MTS assay; assay type: cell-based; details: A-431, 48 h
Candida tropicalis [5] = assay: Antifungal activity against Candida tropicalis 156 after 48 hrs by broth microdilution method; assay type: functional; details: Candida tropicalis, 156, 48 h
[6] = system: Trichophyton mentagrophytes; assay: Antifungal activity against Trichophyton mentagrophytes 445 after 120 hrs by broth microdilution method; assay type: functional; details: Trichophyton mentagrophytes, 445, 120 h
Lichtheimia corymbifera [7] = assay: Antifungal activity against Absidia corymbifera 272 after 24 hrs by broth microdilution method; assay type: functional; details: Lichtheimia corymbifera, 272, 24 h
[8] = system: Mycobacterium tuberculosis; assay: Antimycobacterial activity against Mycobacterium tuberculosis CNCTC My 331/88 after 14 days by micromethod; assay type: functional; details: CNCTC My 331/88, 336 h
Enterococcus sp. [9] = assay: Antibacterial activity against Enterococcus sp. HK14365/08 after 48 hrs by broth microdilution method; assay type: functional; details: HK14365/08, 48 h
Aspergillus fumigatus [10] = assay: Antifungal activity against Aspergillus fumigatus 231 after 48 hrs by broth microdilution method; assay type: functional; details: Aspergillus fumigatus, 231, 48 h
Pichia kudriavzevii [11] = assay: Antifungal activity against Candida krusei E28 after 24 hrs by broth microdilution method; assay type: functional; details: E28, 24 h
Huh-7 = assay: Cytotoxicity against human HuH7 cells assessed as cell viability after 48 hrs by MTS assay; assay type: cell-based; details: Huh-7, 48 h
Pichia kudriavzevii [12] = assay: Antifungal activity against Candida krusei E28 after 48 hrs by broth microdilution method; assay type: functional; details: E28, 48 h
Trichosporon asahii [13] = assay: Antifungal activity against Trichosporon asahii 1188 after 24 hrs by broth microdilution method; assay type: functional; details: Trichosporon asahii, 1188, 24 h
Candida albicans [14] = assay: Antifungal activity against Candida albicans ATCC 44859 after 48 hrs by broth microdilution method; assay type: functional; details: ATCC 44859, 48 h
Mycobacterium kansasii [15] = assay: Antimycobacterial activity against Mycobacterium kansasii CNCTC My 235/80 after 7 days by micromethod; assay type: functional; details: CNCTC My 235/80, 168 h
Pseudomonas aeruginosa [16] = assay: Antibacterial activity against Pseudomonas aeruginosa ATCC 9027 after 48 hrs by broth microdilution method; assay type: functional; details: ATCC 9027, 48 h
Mycobacterium kansasii [17] = assay: Antimycobacterial activity against Mycobacterium kansasii 6509/96 clinical isolate after 14 days by micromethod; assay type: functional; details: 6509/96, 336 h
[18] = Cytotoxicity against human HuH7 cells assessed as cell viability at 30 uM after 48 hrs by MTS assay relative to control; assay type: cell-based, Huh-7; details: read-out: Activity
Klebsiella pneumoniae [19] = assay: Antibacterial activity against Klebsiella pneumoniae HK11750/08 after 24 hrs by broth microdilution method; assay type: functional; details: HK11750/08, 24 h
Nakaseomyces glabratus [20] = assay: Antifungal activity against Candida glabrata 20/I after 24 hrs by broth microdilution method; assay type: functional
[21] = system: Trichophyton mentagrophytes; assay: Antifungal activity against Trichophyton mentagrophytes 445 after 72 hrs by broth microdilution method; assay type: functional; details: Trichophyton mentagrophytes, 445, 72 h
Staphylococcus aureus [22] = assay: Antibacterial activity against Staphylococcus aureus ATCC 6538 after 48 hrs by broth microdilution method; assay type: functional; details: ATCC 6538, 48 h
[23] = Cytotoxicity against human HepG2 cells assessed as cell viability at 30 uM after 48 hrs by MTS assay relative to control; assay type: cell-based; details: read-out: Activity
Klebsiella pneumoniae [24] = assay: Antibacterial activity against Klebsiella pneumoniae HK11750/08 after 48 hrs by broth microdilution method; assay type: functional; details: HK11750/08, 48 h
Escherichia coli [25] = assay: Antibacterial activity against Escherichia coli ATCC 8739 after 48 hrs by broth microdilution method; assay type: functional; details: ATCC 8739, 48 h
[26] = Selectivity index, ratio of IC50 for human HepG2 cells to MIC for Mycobacterium tuberculosis; assay type: toxicity; details: read-out: Selectivity Index
[27] = system: Staphylococcus epidermidis; assay: Antibacterial activity against Staphylococcus epidermidis HK6996/08 after 48 hrs by broth microdilution method; assay type: functional; details: HK6996/08, 48 h
Staphylococcus aureus [28] = assay: Antibacterial activity against methicillin-resistant Staphylococcus aureus HK5996/08 after 48 hrs by broth microdilution method; assay type: functional; details: HK5996/08, 48 h
[29] = Cytotoxicity against human A431 cells assessed as cell viability at 30 uM after 48 hrs by MTS assay relative to control; assay type: cell-based, A-431; details: read-out: Activity
[30] = Cytotoxicity against MDCK cells assessed as cell viability at 30 uM after 48 hrs by MTS assay relative to control; assay type: cell-based, Canis lupus familiaris; details: dog, read-out: Activity
Trichosporon asahii [31] = assay: Antifungal activity against Trichosporon asahii 1188 after 48 hrs by broth microdilution method; assay type: functional; details: Trichosporon asahii, 1188, 48 h
Mycobacterium kansasii [32] = assay: Antimycobacterial activity against Mycobacterium kansasii 6509/96 clinical isolate after 21 days by micromethod; assay type: functional; details: 6509/96, 504 h
Enterococcus sp. [33] = assay: Antibacterial activity against Enterococcus sp. HK14365/08 after 24 hrs by broth microdilution method; assay type: functional; details: HK14365/08, 24 h
Candida albicans [34] = assay: Antifungal activity against Candida albicans ATCC 44859 after 24 hrs by broth microdilution method; assay type: functional; details: ATCC 44859, 24 h
Klebsiella pneumoniae [35] = assay: Antibacterial activity against extended spectrum beta-lactamase producing Klebsiella pneumoniae HK14368/08 after 48 hrs by broth microdilution method; assay type: functional; details: HK14368/08, 48 h
Mycobacterium kansasii [36] = assay: Antimycobacterial activity against Mycobacterium kansasii CNCTC My 235/80 after 14 days by micromethod; assay type: functional; details: CNCTC My 235/80, 336 h
Escherichia coli [37] = assay: Antibacterial activity against Escherichia coli ATCC 8739 after 24 hrs by broth microdilution method; assay type: functional; details: ATCC 8739, 24 h
Mycobacterium kansasii [38] = assay: Antimycobacterial activity against Mycobacterium kansasii 6509/96 clinical isolate after 7 days by micromethod; assay type: functional; details: 6509/96, 168 h
MDCK = assay: Cytotoxicity against MDCK cells assessed as cell viability after 48 hrs by MTS assay; assay type: cell-based; details: Canis lupus familiaris
Mycobacterium kansasii [39] = assay: Antimycobacterial activity against Mycobacterium kansasii CNCTC My 235/80 after 21 days by micromethod; assay type: functional; details: CNCTC My 235/80, 504 h
[40] = system: Mycobacterium tuberculosis; assay: Antimycobacterial activity against Mycobacterium tuberculosis CNCTC My 331/88 after 21 days by micromethod; assay type: functional; details: CNCTC My 331/88, 504 h
Nakaseomyces glabratus [41] = assay: Antifungal activity against Candida glabrata 20/I after 48 hrs by broth microdilution method; assay type: functional
Staphylococcus aureus [42] = assay: Antibacterial activity against methicillin-resistant Staphylococcus aureus HK5996/08 after 24 hrs by broth microdilution method; assay type: functional; details: HK5996/08, 24 h
Pseudomonas aeruginosa [43] = assay: Antibacterial activity against Pseudomonas aeruginosa ATCC 9027 after 24 hrs by broth microdilution method; assay type: functional; details: ATCC 9027, 24 h
Candida tropicalis [44] = assay: Antifungal activity against Candida tropicalis 156 after 24 hrs by broth microdilution method; assay type: functional; details: Candida tropicalis, 156, 24 h
Aspergillus fumigatus [45] = assay: Antifungal activity against Aspergillus fumigatus 231 after 24 hrs by broth microdilution method; assay type: functional; details: Aspergillus fumigatus, 231, 24 h
HepG2 = assay: Cytotoxicity against human HepG2 cells assessed as cell viability after 48 hrs by MTS assay; assay type: cell-based; details: HepG2, 48 h

Compound: O=[N+]([O-])c1cc(-c2nnc(SCc3ccc(Cl)cc3)o2)cc([N+](=O)[O-])c1
- MIC (Lichtheimia corymbifera [1]): > 125 µM
- MIC [2]: > 500 µM
- MIC (Klebsiella pneumoniae [3]): > 500 µM
- MIC (Staphylococcus aureus [4]): > 500 µM
- IC50 (A-431): > 30 µM
- MIC (Candida tropicalis [5]): > 125 µM
- MIC [6]: > 125 µM
- MIC (Lichtheimia corymbifera [7]): > 125 µM
- MIC [8]: 0.03 µM (≈ 0.0118 µg/mL)
- MIC (Enterococcus sp. [9]): > 500 µM
- MIC (Aspergillus fumigatus [10]): > 125 µM
- MIC (Pichia kudriavzevii [11]): > 125 µM
- IC50 (Huh-7): > 30 µM
- MIC (Pichia kudriavzevii [12]): > 125 µM
- MIC (Trichosporon asahii [13]): > 125 µM
- MIC (Candida albicans [14]): > 125 µM
- MIC (Mycobacterium kansasii [15]): 0.03 µM (≈ 0.0118 µg/mL)
- MIC (Pseudomonas aeruginosa [16]): > 500 µM
- MIC (Mycobacterium kansasii [17]): 0.03 µM (≈ 0.0118 µg/mL)
- viability at 48 h, 30 µM [18]: 126%
- MIC (Klebsiella pneumoniae [19]): > 500 µM
- MIC (Nakaseomyces glabratus [20]): > 125 µM
- MIC [21]: > 125 µM
- MIC (Staphylococcus aureus [22]): > 500 µM
- viability at 48 h, 30 µM [23]: 126%
- MIC (Klebsiella pneumoniae [24]): > 500 µM
- MIC (Escherichia coli [25]): > 500 µM
- selectivity ratio [26]: > 1000
- MIC [27]: > 500 µM
- MIC (Staphylococcus aureus [28]): > 500 µM
- viability at 48 h, 30 µM [29]: 100%
- viability at 48 h, 30 µM [30]: 110%
- MIC (Trichosporon asahii [31]): > 125 µM
- MIC (Mycobacterium kansasii [32]): 0.03 µM (≈ 0.0118 µg/mL)
- MIC (Enterococcus sp. [33]): > 500 µM
- MIC (Candida albicans [34]): > 125 µM
- MIC (Klebsiella pneumoniae [35]): > 500 µM
- MIC (Mycobacterium kansasii [36]): 0.06 µM (≈ 0.0236 µg/mL)
- MIC (Escherichia coli [37]): > 500 µM
- MIC (Mycobacterium kansasii [38]): 0.03 µM (≈ 0.0118 µg/mL)
- IC50 (MDCK): > 30 µM
- MIC (Mycobacterium kansasii [39]): 0.125 µM (≈ 0.0491 µg/mL)
- MIC [40]: 0.06 µM (≈ 0.0236 µg/mL)
- MIC (Nakaseomyces glabratus [41]): > 125 µM
- MIC (Staphylococcus aureus [42]): > 500 µM
- MIC (Pseudomonas aeruginosa [43]): > 500 µM
- MIC (Candida tropicalis [44]): > 125 µM
- MIC (Aspergillus fumigatus [45]): > 125 µM
- IC50 (HepG2): > 30 µM
